Measured values published in patent US9533973B2, “Allosteric modulators of 5-hydroxytryptamine 2C receptor (5-HT2CR)” (THE BOARD OF REGENTS OF THE UNIVERSITY OF TEXAS SYSTEM, priority 2011, dated 2017).
“Also recorded” adds a separate entry of the source.

What was measured:
[1] = Solubility of representative compounds (Table 1); assay type: physicochemical; conditions: solvents listed
5-HT2CR = biological target: T1, 5-HT2CR (Homo sapiens, UniProt P28335); experiment: 5-HT induced intracellular calcium (Cai++) release assay in live 5-HT2CR-CHO cells; assay type: cell-based; parameters: expressed in transfected cells; conditions: 5-HT2CR-CHO cells
T1 sequence (P28335 33-458): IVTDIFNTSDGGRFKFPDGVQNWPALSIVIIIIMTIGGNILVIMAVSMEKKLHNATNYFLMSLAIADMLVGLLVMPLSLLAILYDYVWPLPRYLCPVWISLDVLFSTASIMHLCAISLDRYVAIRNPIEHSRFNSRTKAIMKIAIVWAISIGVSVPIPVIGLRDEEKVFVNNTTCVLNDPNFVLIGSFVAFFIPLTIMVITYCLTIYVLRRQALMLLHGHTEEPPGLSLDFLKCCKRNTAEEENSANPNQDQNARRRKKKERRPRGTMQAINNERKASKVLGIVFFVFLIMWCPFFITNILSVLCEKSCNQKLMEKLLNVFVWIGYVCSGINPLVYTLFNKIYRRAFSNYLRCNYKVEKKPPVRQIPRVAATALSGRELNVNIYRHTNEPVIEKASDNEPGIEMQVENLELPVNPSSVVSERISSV
Method: Selected results for the biological characterization of the synthesized compounds can be found in Ding et al., ACS Chem. Neurosci., 3, 538-545, 2012, and also described herein. The biological activity is assessed using an intracellular calcium (Cai^++) release assay. The best-characterized intracellular signaling pathway of the 5-HT2CR is the activation of phospholipase C (PLCβ) via Gαq/11 proteins and the production of diacylglycerol (DAG) and inositol-1,4,5-trisphosphate (IP3), leading to increased Cai^++ release from intracellular stores (Berg et al., Neuropharmacology 55, 969-76, 2008). Functional characterization of our synthetic PNU-69176E (CYD-1-78-2) and its diastereomer CYD-1-78-1 was determined by utilizing an Cai^++ release assay in live cells in which Cai^++ levels can be regarded as an outcome measure of activation of the 5-HT2CR signaling pathway (Berg et al., Neuropharmacology 55, 969-76, 2008). […] In addition, 1 nM of compound CYD-1-78-2 enhanced the Cai^++ response at low concentrations of 5-HT [10^11-3×10^−10 M; F(15,55)=16.73, p<0.01; FIG. 2]. […] Neither compound CYD-1-78-2 [F(10,68)=0.81, n.s.] nor the diastereomer CYD-1-78-1 [F(10,34)=0.76, n.s.] in concentrations up to 10^−5 M induced Cai^++ release in the 5-HT2CR—CHO cells in the absence of 5-HT (FIG. 3). This profile for compounds CYD-1-78-2 and −1 in 5-HT2CR—CHO cells was distinguished from that seen in 5-HT2AR—CHO cells in which neither compound alone or in the presence of 5-HT (compound CYD-1-78-1, F(10,43)=0.78; compound CYD-1-78-2, F(10,55)=1.27; FIG. 4) altered Cai^++ release (Ding et al., ACS Chem. Neurosci. 3, 538-545, 2012).
The Chinese hamster ovary (CHO) cell line stably transfected with 5-HT2CR was a generous gift of K. Berg and W. Clarke (University of Texas Health Science Center, San Antonio) (K. A. Berg, W. P. Clarke, C. Sailstad, A. Saltzman and S. Maayani, Mol. Pharmacol. 1994, 46 (3), 477-484; Ding et al., ACS Chem. Neurosci. 3, 538-545, 2012). Cells were grown at 37° C., 5% CO2 and 85% relative humidity in GlutaMax α-MEM (Invitrogen, Carlsbad Calif.), 5% fetal bovine serum (Atlanta Biologicals, Atlanta Ga.), 100 μg/mL hygromycin (Mediatech, Manassas Va.) and were passaged when they reached 80% confluence.
Changes in Cai^++ levels were determined using the calcium sensitive dye Calcium 4 (FLIPR No-wash kit, Molecular Devices, Sunnyvale, Calif., part #R8142). Cells were plated in serum-replete medium at 20,000 cells/well in black-sided, clear bottom 96-well tissue culture plates and were fed ˜24 hrs later with serum-free medium. Following overnight incubation, medium was removed and replaced with 40 μL of fresh serum-free medium plus 40 μL Calcium 4 dye solution in Hank's balanced saline solution (HBSS, without CaCl2 or MgCl2) supplemented with 2.5 mM water soluble probenicid (Invitrogen) to inhibit extracellular transport of the dye. Plates were incubated for 60 min at 37° C. and 60 min at room temperature in the dark. Fluorescence (λex=485 nm, λem=525 nm) was measured with a FlexStation3 (Molecular Devices). A baseline was established for each well during the initial segment of each run. Addition of 20 μL of 5× concentrated tested compound occurred at 17 sec and fluorescence was recorded every 1.7 sec for 90 sec to determine any innate agonist activity. This first round of 90 sec recordings provided a 20 min preincubation period. […] Maximum peak height was determined by the FlexStation software (SoftMax Pro 5.2) for each well and was normalized to vehicle control.

For `CS[C@H]1OC([C@@H](NC(=O)C2CNCCN2c2ccccc2)[C@H](C)Cl)[C@H](O)[C@H](O)[C@H]1O` (stereo partly drawn) [CYD-1-82, 1-Phenyl-piperazine-2-carboxylic acid [2-chloro-1-(3,4,5-trihydroxy-6-methylsulfanyl-tetrahydro-pyran-2-yl)-propyl]amide], the Solubility [1] was “EtOH, DMSO”, the “effect on 5-HT-induced Cai++ release” value (5-HT2CR; positive allosteric modulation) was “enhanced; also recorded: potentiated” and the EC50 (5-HT2CR; 5-HT-induced Cai++ release) was 8 ± 4 nM.
